According to patent US12358879B2, “Heterocyclic compound” (Takeda Pharmaceutical Company Limited, priority 2019, dated 2025):

Tested on: Skin fibroblasts derived from FA patients (GM4078)
Assay: RSL3-induced cell death inhibitory activity in skin fibroblasts derived from FA patients (ATP, CellTiter-Glo)
Format: cell-based, human
Conditions: 3 μmol/l RSL3, 24 hours
Method: The effects of the compounds according to the present disclosure were evaluated according to the literature (M. G. Cotticelli et al, J Pharmacol Exp Ther 2019, 369, 47-54.).
Skin fibroblasts derived from FA patients (Coriell Institute for Medical Research, GM4078) were cultured in a culture medium consisting of DMEM (Thermo Fisher Scientific, 11995-065), 10% fetal bovine serum (Thermo Fisher Scientific, 26140-087), 1% GlutaMAX supplement (Thermo Fisher Scientific, 35050-061) and 1% Penicillin-Streptomycin solution (FUJIFILM Wako Pure Chemical Corporation, 168-23191).
For assay, the fibroblasts in the above culture medium were seeded in a 384-well plate at 1,500 cells per well, and the test compound and 3 μmol/l (final concentration) RSL3 were added to the plate the day after seeding. The concentration of the test compound added to the assay plate was 0.01, 0.1, 1 and 10 μmol/l as 4 points, and DMSO was added as a negative control for the test compound and RSL3. Twenty-four hours after the addition of RSL3/the test compound, CellTiter-Glo Luminescent Cell Viability Assay solution (Promega, G7573) was added to the plate to lyse the cells, and ATP was measured as an index of cell viability by detecting chemiluminescence with a plate reader.
RSL3-induced cell death inhibitory activity of the test compound=((X−C)/(T−C))×100 • X: ATP in the RSL3 addition/the test compound addition group, • C: ATP in the RSL3 addition/the test compound non-addition group, • T: ATP in the RSL3 non-addition/the test compound non-addition group

| Structure (SMILES) | RSL3-induced cell death inhibitory activity (%) at each compound concentration (μmol/l) (compound 0.01 μmol/l) [%] | RSL3-induced cell death inhibitory activity (%) at each compound concentration (μmol/l) (compound 0.1 μmol/l) [%] | RSL3-induced cell death inhibitory activity (%) at each compound concentration (μmol/l) (compound 1 μmol/l) [%] | RSL3-induced cell death inhibitory activity (%) at each compound concentration (μmol/l) (compound 10 μmol/l) [%] |
| --- | --- | --- | --- | --- |
| Cn1nc(Nc2cccc3c2OCC3)c2ccc(C(C)(C)O)cc21 [Example 2, 2-{3-[(2,3-dihydro-1-benzofuran-7-yl)amino]-1-methyl-1H-indazol-6-yl}propan-2-ol] | 4.7 | 71.7 | 95.4 | 83.5 |
| Cn1cc(Nc2nn(C)c3cc(C(C)(C)O)ccc23)c(C(F)(F)F)n1 [Example 5, 2-(1-methyl-3-{[1-methyl-3-(trifluoromethyl)-1H-pyrazol-4-yl]amino}-1H-indazol-6-yl)propan-2-ol] | 27.8 | 53.9 | 84.5 | 82.7 |
| Cn1ncc(Nc2nn(C)c3cc(C(C)(C)O)ccc23)c1C(F)(F)F [Example 9, 2-(1-methyl-3-{[1-methyl-5-(trifluoromethyl)-1H-pyrazol-4-yl]amino}-1H-indazol-6-yl)propan-2-ol] | 30.0 | 61.8 | 96.1 | 84.6 |
| COc1cc(-c2cnn(C)c2)ccc1Nc1n[nH]c2cc(C(C)(C)O)ccc12 [Example 12, 2-{3-[2-methoxy-4-(1-methyl-1H-pyrazol-4-yl)anilino]-1H-indazol-6-yl}propan-2-ol] | 33.2 | 57.8 | 79.9 | 85.9 |
| Cn1nc(Nc2cnn3c2CCCC3)c2ccc(C(C)(C)O)cc21 [Example 19, 2-{1-methyl-3-[(4,5,6,7-tetrahydropyrazolo[1,5-a]pyridin-3-yl)amino]-1H-indazol-6-yl}propan-2-ol] | 11.1 | 32.1 | 58.9 | 78.9 |
| CCn1nc(Nc2cn(C)nc2OC)c2ccc(C(C)(C)O)cc21 [Example 36, 2-{1-ethyl-3-[(3-methoxy-1-methyl-1H-pyrazol-4-yl)amino]-1H-indazol-6-yl}propan-2-ol] | 14.0 | 28.5 | 55.8 | 86.0 |
| COc1nn(C)cc1Nc1nn(C(C)C)c2cc(C(C)(C)O)ccc12 [Example 39, 2-{3-[(3-methoxy-1-methyl-1H-pyrazol-4-yl)amino]-1-(propan-2-yl)-1H-indazol-6-yl}propan-2-ol] | 58.0 | 66.4 | 83.0 | 93.2 |
| COc1c(Nc2nn(C)c3cc(C(C)(C)O)ccc23)cnn1CC(C)C [Example 40, 2-(3-{[5-methoxy-1-(2-methylpropyl)-1H-pyrazol-4-yl]amino}-1-methyl-1H-indazol-6-yl)propan-2-ol] | 40.7 | 63.0 | 98.1 | 94.9 |
| COc1nn(C)cc1Nc1nn(C)c2ccc(C(C)(C)O)cc12 [Example 41, 2-{3-[(3-methoxy-1-methyl-1H-pyrazol-4-yl)amino]-1-methyl-1H-indazol-5-yl}propan-2-ol] | 21.3 | 40.8 | 58.1 | 71.7 |
| COc1c(Nc2nn(C)c3cc(C(C)(C)O)cc(F)c23)cnn1CC(C)C [Example 44, 2-(4-fluoro-3-{[5-methoxy-1-(2-methylpropyl)-1H-pyrazol-4-yl]amino}-1-methyl-1H-indazol-6-yl)propan-2-ol] | 38.3 | 61.3 | 78.4 | 95.0 |
| COc1nn(C)cc1Nc1nn(CC2CC2)c2cc(C(C)(C)O)ccc12 [Example 49, 2-{1-(cyclopropylmethyl)-3-[(3-methoxy-1-methyl-1H-pyrazol-4-yl)amino]-1H-indazol-6-yl}propan-2-ol] | 37.8 | 64.9 | 96.5 | 93.0 |
| Cn1nc(Nc2cnn3c2OCCC3)c2cc(F)c(C(C)(C)O)cc21 [Example 56, 2-{3-[(6,7-dihydro-5H-pyrazolo[5,1-b][1,3]oxazin-3-yl)amino]-5-fluoro-1-methyl-1H-indazol-6-yl}propan-2-ol] | 47.4 | 69.3 | 94.2 | 90.3 |
| Cn1nc(NC2CCCCC2)c2cc(C(C)(C)O)ccc21 [Example 59, 2-[3-(cyclohexylamino)-1-methyl-1H-indazol-5-yl]propan-2-ol] | 48.0 | 65.9 | 93.3 | 95.9 |
| COc1nn(C)cc1Nc1nn(C2CCC2)c2cc(C(C)(C)O)ccc12 [Example 68, 2-{1-cyclobutyl-3-[(3-methoxy-1-methyl-1H-pyrazol-4-yl)amino]-1H-indazol-6-yl}propan-2-ol] | 49.5 | 66.1 | 95.5 | 93.7 |
| COc1nn(C)cc1Nc1nn(C2CCC2)c2ccc(C(C)(C)O)cc12 [Example 70, 2-{1-cyclobutyl-3-[(3-methoxy-1-methyl-1H-pyrazol-4-yl)amino]-1H-indazol-5-yl}propan-2-ol] | 12.1 | 86.1 | 89.2 | 82.2 |
| COc1nn(C)cc1Nc1nn(CC2CC2(F)F)c2cc(C(C)(C)O)ccc12 (stereo not drawn) [Example 77, 2-{1-[(2,2-difluorocyclopropyl)methyl]-3-[(3-methoxy-1-methyl-1H-pyrazol-4-yl)amino]-1H-indazol-6-yl}propan-2-ol] | 17.7 | 46.4 | 76.2 | 77.1 |
| COCc1nn(C)cc1Nc1nn(C2CCC2)c2cc(C(C)(C)O)ccc12 [Example 82, 2-(1-cyclobutyl-3-{[3-(methoxymethyl)-1-methyl-1H-pyrazol-4-yl]amino}-1H-indazol-6-yl)propan-2-ol] | 1.9 | 41.6 | 64.0 | 73.8 |
| COCc1nn(C)cc1Nc1nn(CC2CC2)c2cc(C(C)(C)O)ccc12 [Example 84, 2-[1-(cyclopropylmethyl)-3-{[3-(methoxymethyl)-1-methyl-1H-pyrazol-4-yl]amino}-1H-indazol-6-yl]propan-2-ol] | 12.4 | 47.5 | 75.7 | 73.8 |
